In patent publication US10100010B1, “4-methoxy pyrrole derivatives or salts thereof and pharmaceutical composition comprising the same” (Daewoong Pharmaceutical Co., Ltd., priority 2015, dated 2018):

Key:
[1] = system: H. pylori; experiment: Antimicrobial activity against H. pylori, MIC by agar dilution method; assay type: cell-based; conditions: Helicobacter pylori
[2] = biological target: T1, M1 (Homo sapiens, UniProt P11229); experiment: GPCR Calcium Flux assay (FLIPR tetra, Eurofins), M1; assay type: cell-based
T1 sequence (P11229 1-460): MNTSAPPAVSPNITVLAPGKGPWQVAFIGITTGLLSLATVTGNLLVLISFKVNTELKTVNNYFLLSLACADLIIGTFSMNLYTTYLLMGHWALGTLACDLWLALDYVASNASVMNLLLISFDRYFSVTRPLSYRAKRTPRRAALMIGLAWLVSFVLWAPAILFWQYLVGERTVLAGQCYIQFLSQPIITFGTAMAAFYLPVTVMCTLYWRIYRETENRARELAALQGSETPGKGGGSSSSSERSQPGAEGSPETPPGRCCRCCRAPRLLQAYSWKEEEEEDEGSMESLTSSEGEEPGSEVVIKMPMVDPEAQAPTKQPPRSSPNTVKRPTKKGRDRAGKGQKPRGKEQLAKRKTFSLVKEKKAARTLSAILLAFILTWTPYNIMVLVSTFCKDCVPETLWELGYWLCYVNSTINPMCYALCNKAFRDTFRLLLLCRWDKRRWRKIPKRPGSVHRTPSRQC
Description: In order to confirm whether the compounds prepared in the above Examples act as an agonist or antagonist against GPCR Target, Calcium Flux assay was performed in an assay plate in which the compounds prepared in the Examples, vehicle controls, and reference compounds were added, using a Fluorometric imaging plate reader (FLIPR tetra) equipment.
Calcium Flux assay was evaluated by entrusting the GPCR profiler assay in Safety panel assays with Eurofins. By using the Fluo-8AM calcium dye, excitation was measured at a wavelength in the range of 470 to 495 nm and Emission was measured at a wavelength in the range of 515-575 nm. GPCR Assay Buffer for Calcium Flux assay was prepared by adding 20 mM of HEPES and 2.5 mM of Probenecid to Hanks Balanced Salt Solution (HBSS) to have pH 7.4. The Compounds of Examples for evaluation of the GPCR were diluted with DMSO at a concentration of 10 mM to make a stock and then prepared by diluting in the GPCR Assay Buffer at the concentration equivalent to three times the final concentration. First, for the evaluation of GPCRs, the inhibitory activity of the compounds of the Examples was evaluated at a single concentration of 10 uM, and then the respective selected targets were four fold-diluted from 10 uM to the low side to calculate 50% inhibitory concentration (IC50), prepared at the total 8 concentrations of 10, 2.5, 0.62, 0.15, 0.04, 0.01, 0.0024, 0.0006 uM, and Calcium Flux assay for GPCR was conducted. In order to evaluate the agonist and antagonist, % inhibition rate against GPCR activity before and after treatment of the compounds and the inhibitory activity of the compounds of the Examples were determined.
As a result, when the efficacy of […] and acetylcholine of the compounds prepared in the Examples was 100%, the inhibition rate (%) at a single concentration of 10 uM was evaluated and shown in Table 8.

SMILES: CNCc1cn(S(=O)(=O)c2cccc(F)c2)c(-c2c(F)cc(F)cc2F)c1OC.Cl [Example 22, 1-(1-((3-fluorophenyl)sulfonyl)-4-methoxy-5-(2,4,6-trifluorophenyl)-1H-pyrrol-3-yl)-N-methylmethanamine hydrochloride]
- MIC ([1]; strain 45 (HPKTCC B0004)): 75 µg/mL
- MIC ([1]; strain 51 (HPKTCC B0006)): 75 µg/mL
- MIC ([1]; strain 52 (HPKTCC B0007)): 75 µg/mL
- MIC ([1]; strain 92-33-1 (HPKTCC B0182)): 75 µg/mL
- MIC ([1]; strain 92-82-1 (HPKTCC B0233)): 75 µg/mL
- MIC ([1]; strain 92-157 (HPKTCC B0152)): 75 µg/mL
- MIC ([1]; strain 118 (HPKTCC B0017)): 75 µg/mL
- MIC ([1]; strain 126 (HPKTCC B0020)): 75 µg/mL
- MIC ([1]; strain 127 (HPKTCC B0021)): 75 µg/mL
- MIC ([1]; strain 133 (HPKTCC B0023)): 75 µg/mL
- MIC ([1]; strain 134 (HPKTCC B0024)): 75 µg/mL
- MIC ([1]; strain 138 (HPKTCC B0026)): 75 µg/mL
- MIC ([1]; strain 156 (HPKTCC B0035)): 75 µg/mL
- MIC ([1]; strain 159 (HPKTCC B0037)): 75 µg/mL
- MIC ([1]; strain 164 (HPKTCC B0040)): 75 µg/mL
- MIC ([1]; strain 183 (HPKTCC B0047)): 75 µg/mL
- MIC ([1]; strain 193 (HPKTCC B0051)): 75 µg/mL
- MIC ([1]; strain 198 (HPKTCC B0055)): 75 µg/mL
- MIC ([1]; strain 205 (HPKTCC B0058)): 75 µg/mL
- MIC ([1]; strain 210 (HPKTCC B0061)): 75 µg/mL
- MIC ([1]; strain 221 (HPKTCC B0068)): 75 µg/mL
- MIC ([1]; strain 228 (HPKTCC B0071)): 75 µg/mL
- MIC ([1]; strain 235 (HPKTCC B0074)): 75 µg/mL
- MIC ([1]; strain 236 (HPKTCC B0075)): 75 µg/mL
- MIC ([1]; strain 302 (HPKTCC B0088)): 75 µg/mL
- MIC ([1]; strain 26695 (HPKTCC B0100)): 75 µg/mL
- MIC ([1]; strain 26695 CHGKG (HPKTCC B3412)): 150 µg/mL
- MIC ([1]; strain CH24 (HPKTCC B0508)): 75 µg/mL
- MIC ([1]; strain CH94 (HPKTCC B0582)): 75 µg/mL
- MIC ([1]; strain CH173 (HPKTCC B0494)): 75 µg/mL
- MIC ([1]; strain CH175 (HPKTCC B0496)): 75 µg/mL
- MIC ([1]; strain CH189 (HPKTCC B0498)): 75 µg/mL
- MIC ([1]; strain CH192 (HPKTCC B0500)): 75 µg/mL
- MIC ([1]; strain CH272 (HPKTCC B0516)): 75 µg/mL
- MIC ([1]; strain CH369 (HPKTCC B0522)): 75 µg/mL
- MIC ([1]; strain CH381 (HPKTCC B0524)): 75 µg/mL
- MIC ([1]; strain CH498 (HPKTCC B0536)): 75 µg/mL
- MIC ([1]; strain CH502 (HPKTCC B0537)): 75 µg/mL
- MIC ([1]; strain CH523 (HPKTCC B0541)): 75 µg/mL
- MIC ([1]; strain CH541 (HPKTCC B0548)): 75 µg/mL
- MIC ([1]; strain CH588 (HPKTCC B0556)): 75 µg/mL
- MIC ([1]; strain CH609 (HPKTCC B0558)): 75 µg/mL
- MIC ([1]; strain CH612 (HPKTCC B0559)): 75 µg/mL
- MIC ([1]; strain CH631 (HPKTCC B0560)): 75 µg/mL
- MIC ([1]; strain CH635 (HPKTCC B0562)): 75 µg/mL
- MIC ([1]; strain CH674 (HPKTCC B0564)): 75 µg/mL
- MIC ([1]; strain CH1056 (HPKTCC B0487)): 75 µg/mL
- MIC ([1]; strain CJH7 (HPKTCC B0606)): 75 µg/mL
- MIC ([1]; strain CJH8 (HPKTCC B0608)): 75 µg/mL
- MIC ([1]; strain CJH9 (HPKTCC B0610)): 75 µg/mL
- MIC ([1]; strain CJH10 (HPKTCC B0587)): 75 µg/mL
- MIC ([1]; strain CJH13 (HPKTCC B0589)): 75 µg/mL
- MIC ([1]; strain CJH31 (HPKTCC B0594)): 75 µg/mL
- MIC ([1]; strain CJH33 (HPKTCC B0595)): 75 µg/mL
- MIC ([1]; strain CJH43 (HPKTCC B0596)): 75 µg/mL
- MIC ([1]; strain CJH50 (HPKTCC B0599)): 75 µg/mL
- MIC ([1]; strain G88001 (HPKTCC B0722)): 75 µg/mL
- MIC ([1]; strain G88007 (HPKTCC B0725)): 75 µg/mL
- MIC ([1]; strain J99 (HPKTCC B0748)): 75 µg/mL
- MIC ([1]; strain SS1-P-4′ (HPKTCC B3392)): 75 µg/mL
- IC50 ([2]; 8 concentrations 10 to 0.0006 uM, read-out: 50% inhibitory concentration (IC50) M1): 370 nM
- inhibition at 10 µM ([2]; single concentration of 10 uM, read-out: inhibition rate (%) M1): 98%
